Experimental data reported in publication PMC5620994, “Halogenation of glycopeptide antibiotics occurs at the amino acid level during non-ribosomal peptide synthesis” (Chemical Science, 2017).

Experiments:
[1] = target: T1, BhaA (balhimycin halogenase) (Amycolatopsis balhimycina, UniProt O87676); experiment: purified as FAD-bound form; format: binding; details: FAD co-purified with the enzyme
T1 construct: overproduced in Pseudomonas fluorescens BL915 deltaORF1-4 from shuttle vector pCIBhis (His tag)

[2] = target: T2, Tcp21 (halogenase from the teicoplanin system) (Actinoplanes teichomyceticus, UniProt Q70AY7); experiment: purified as FAD-bound form; format: binding; details: FAD co-purified with the enzyme
T2 construct: synthetic codon-optimised gene, selected range 16-506, pET-28(a) via NdeI/HindIII, His-tagged, expressed in E. coli
T2 sequence (Q70AY7 16-506): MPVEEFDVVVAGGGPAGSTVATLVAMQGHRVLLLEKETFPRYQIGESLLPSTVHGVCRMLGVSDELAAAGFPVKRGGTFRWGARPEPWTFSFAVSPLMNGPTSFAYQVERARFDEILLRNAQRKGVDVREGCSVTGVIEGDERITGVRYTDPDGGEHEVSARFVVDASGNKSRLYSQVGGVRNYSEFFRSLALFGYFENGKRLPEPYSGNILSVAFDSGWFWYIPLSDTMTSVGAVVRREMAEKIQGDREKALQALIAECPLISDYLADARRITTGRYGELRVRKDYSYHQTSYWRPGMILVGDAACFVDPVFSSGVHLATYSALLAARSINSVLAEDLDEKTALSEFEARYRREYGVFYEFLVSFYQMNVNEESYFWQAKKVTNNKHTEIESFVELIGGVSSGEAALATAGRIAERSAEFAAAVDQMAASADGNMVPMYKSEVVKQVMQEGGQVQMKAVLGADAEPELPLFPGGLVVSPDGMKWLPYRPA

T1 sequence (O87676 entry or part of it): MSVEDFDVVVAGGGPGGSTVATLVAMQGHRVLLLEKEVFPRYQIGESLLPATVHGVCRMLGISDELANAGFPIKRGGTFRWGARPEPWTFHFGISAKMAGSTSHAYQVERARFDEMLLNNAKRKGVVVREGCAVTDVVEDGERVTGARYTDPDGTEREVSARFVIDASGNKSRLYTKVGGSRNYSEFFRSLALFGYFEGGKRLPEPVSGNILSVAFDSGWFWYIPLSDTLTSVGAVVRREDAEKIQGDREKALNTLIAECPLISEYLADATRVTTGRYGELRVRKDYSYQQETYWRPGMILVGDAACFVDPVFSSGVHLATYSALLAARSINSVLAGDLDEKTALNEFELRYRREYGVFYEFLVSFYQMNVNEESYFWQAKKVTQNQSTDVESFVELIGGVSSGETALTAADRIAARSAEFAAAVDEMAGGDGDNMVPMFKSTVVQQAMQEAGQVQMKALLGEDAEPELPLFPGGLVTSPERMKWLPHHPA

Cc1cc2nc3c(=O)[nH]c(=O)nc-3n(C[C@H](O)[C@H](O)[C@H](O)COP(=O)(O)OP(=O)(O)OC[C@H]3O[C@@H](n4cnc5c(N)ncnc54)[C@H](O)[C@@H]3O)c2cc1C [FAD]
purified as FAD-bound form [1]: Both enzymes could be overproduced and purified in an FAD-bound form as anticipated | purified as FAD-bound form [2]: Both enzymes could be overproduced and purified in an FAD-bound form as anticipated
